# How the values were obtained:
# [1] = tested on: WT mice; experiment: Renal ischemia and reperfusion in WT mice with renalase peptide RP-H220; assay type: in vivo, mouse; conditions: 30 minutes of renal ischemia and reperfusion
# Description: FIG. 3 is a chart showing that ERK or AKT inhibition abrogates protective effect of renalase peptide: WT mice subjected to sham surgery or to 30 minutes of renal ischemia and reperfusion; RP-[…] or vehicle (saline) injected 10 minutes before renal ischemia. ERK inhibitor PD98059 or the PI3K/AKT inhibitor wortmannin abrogated RP-[…]'s protective effect.
# [2] = tested on: MiaPaCa2 cell; conditions: pretreatment, MiaPaCa2, WST-1, 72 hrs
# Description: FIG. 24B is a chart depicting cell viability relative to control: MiaPaCa2 cell serum starved and then treated with BSA (30 μg/ml) or rRNLS (30 μg/ml), with and without pretreatment with MEK1 inhibitor U0126, and cell viability measured 72 hrs later using the WST-1 assay; n=6, * indicates p<0.005.
# For some studies, cell viability was determined using the WST-1 reagent (Roche Diagnostics, Indianapolis, Ind., USA) as previously described (Wang et al., 2014 Journal of the American Society of Nephrology. DOI:10.1681/asn.2013060665).
SMILES,effect on RP-H220's protective effect [1],effect on rRNLS' protective effect [2]
COc1cccc(-c2cc(=O)c3ccccc3o2)c1N [PD98059],abrogated RP-H220's protective effect,–
N#CC(=C(/N)Sc1ccccc1N)/C(C#N)=C(\N)Sc1ccccc1N [U0126],–,abrogated rRNLS' protective effect
